How the values were obtained:
kochia = assay: Test D preemergence; assay type: in vivo, Kochia scoparia; conditions: for Plant response rating, Kochia: Preemergence, scale 0 to 100
In short: (§1)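 Pre: sown in silt loam, sprayed at once. Post: grown in peat-moss/vermiculite mix, sprayed at 1–4 leaves (2–18 cm). Formulation: non-phytotoxic solvent + surfactant. Read-out: visual 0–100 vs controls, 14–21 d.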

field violet = assay: Test D postemergence; assay type: in vivo, Viola arvensis; conditions: scale 0 to 100
In short: as §1

speedwell = assay: Test D postemergence; assay type: in vivo, Veronica persica; conditions: scale 0 to 100
In short: as §1

oilseed rape = assay: Test D postemergence; assay type: in vivo, Brassica napus; conditions: scale 0 to 100
In short: as §1

oat, wild [1] = assay: Test D preemergence; assay type: in vivo, Avena fatua; conditions: for Plant response rating, Oat, Wild: Preemergence, scale 0 to 100
In short: as §1

radish, wild = assay: Test D postemergence; assay type: in vivo, Raphanus raphanistrum; conditions: scale 0 to 100
In short: as §1

chamomile [2] = assay: Test D postemergence; assay type: in vivo, Matricaria inodora; conditions: scale 0 to 100
In short: as §1

field poppy = assay: Test D postemergence; assay type: in vivo, Papaver rhoeas; conditions: scale 0 to 100
In short: as §1

bromegrass, downy [3] = assay: Test D postemergence; assay type: in vivo, Bromus tectorum; conditions: scale 0 to 100
In short: as §1

bluegrass = assay: Test D postemergence; assay type: in vivo, Poa annua; conditions: scale 0 to 100
In short: as §1

chamomile [4] = assay: Test D preemergence; assay type: in vivo, Matricaria inodora; conditions: for Plant response rating, Chamomile: Preemergence, scale 0 to 100
In short: as §1

oat, wild [5] = assay: Test D postemergence; assay type: in vivo, Avena fatua; conditions: scale 0 to 100
In short: as §1

canarygrass = assay: Test D postemergence; assay type: in vivo, Phalaris minor; conditions: scale 0 to 100
In short: as §1

bromegrass, downy [6] = assay: Test D preemergence; assay type: in vivo, Bromus tectorum; conditions: for Plant response rating, Bromegrass, Downy: Preemergence, scale 0 to 100
In short: as §1

blackgrass = assay: Test D preemergence; assay type: in vivo, Alopecurus myosuroides; conditions: for Plant response rating, Blackgrass: Preemergence, scale 0 to 100
In short: as §1

mustard, wild = assay: Test D postemergence; assay type: in vivo, Sinapis arvensis; conditions: scale 0 to 100
In short: as §1

windgrass = assay: Test D postemergence; assay type: in vivo, Apera spica-venti; conditions: scale 0 to 100
In short: as §1

lambsquarters [7] = assay: Test D postemergence; assay type: in vivo, Chenopodium album; conditions: scale 0 to 100
In short: as §1

galium = assay: Test D preemergence; assay type: in vivo, Galium aparine; conditions: for Plant response rating, Galium: Preemergence, scale 0 to 100
In short: as §1

lambsquarters [8] = assay: Test D preemergence; assay type: in vivo, Chenopodium album; conditions: for Plant response rating, Lambsquarters: Preemergence, scale 0 to 100
In short: as §1

[9] = 16 g ai/ha, taken as preemergence

## CCc1cc(C(=O)NC2CC2)nn1Cc1ccnc(C(F)(F)F)c1 [Compound 76]
kochia; [9]
  Plant response rating (scale 0 to 100), Kochia: 20
kochia; 31 g ai/ha
  Plant response rating, Kochia: 100
kochia; 62 g ai/ha
  Plant response rating, Kochia: 100
kochia; 125 g ai/ha
  Plant response rating, Kochia: 100
kochia; 250 g ai/ha
  Plant response rating, Kochia: 100
Field violet; Postemergence, 16 g ai/ha
  Plant response rating, Field Violet: 10
Field violet; Postemergence, 31 g ai/ha
  Field Violet plant response rating: 15
Field violet; Postemergence, 125 g ai/ha
  Field Violet plant response rating: 70
Field violet; Postemergence, 250 g ai/ha
  Field Violet plant response rating: 85
Field violet; postemergence, 62 g ai/ha
  Field Violet plant response rating: 20
speedwell; Postemergence, 16 g ai/ha
  Plant response rating, Speedwell: 65
speedwell; Postemergence, 31 g ai/ha
  Speedwell plant response rating: 60
speedwell; Postemergence, 125 g ai/ha
  Speedwell plant response rating: 75
speedwell; Postemergence, 250 g ai/ha
  Speedwell plant response rating: 100
speedwell; postemergence, 62 g ai/ha
  Speedwell plant response rating: 75
Oilseed rape; Postemergence, 16 g ai/ha
  Plant response rating, Oilseed Rape: 10
Oilseed rape; Postemergence, 31 g ai/ha
  Oilseed Rape plant response rating: 15
Oilseed rape; Postemergence, 125 g ai/ha
  Oilseed Rape plant response rating: 50
Oilseed rape; Postemergence, 250 g ai/ha
  Oilseed Rape plant response rating: 70
Oilseed rape; postemergence, 62 g ai/ha
  Oilseed Rape plant response rating: 20
oat, wild [1]; [9]
  Plant response rating (scale 0 to 100), Oat, Wild: 0
oat, wild [1]; 31 g ai/ha
  Plant response rating, Oat, Wild: 10
oat, wild [1]; 62 g ai/ha
  Plant response rating, Oat, Wild: 35
oat, wild [1]; 125 g ai/ha
  Plant response rating, Oat, Wild: 90
oat, wild [1]; 250 g ai/ha
  Plant response rating, Oat, Wild: 100
radish, wild; Postemergence, 16 g ai/ha
  Plant response rating, Radish, Wild: 5
radish, wild; Postemergence, 31 g ai/ha
  Radish, Wild plant response rating: 10
radish, wild; Postemergence, 125 g ai/ha
  Radish, Wild plant response rating: 70
radish, wild; Postemergence, 250 g ai/ha
  Radish, Wild plant response rating: 65
radish, wild; postemergence, 62 g ai/ha
  Radish, Wild plant response rating: 20
Chamomile [2]; Postemergence, 16 g ai/ha
  Plant response rating, Chamomile: 10
Chamomile [2]; Postemergence, 31 g ai/ha
  Chamomile plant response rating: 25
Chamomile [2]; Postemergence, 125 g ai/ha
  Chamomile plant response rating: 50
Chamomile [2]; Postemergence, 250 g ai/ha
  Chamomile plant response rating: 55
Chamomile [2]; postemergence, 62 g ai/ha
  Chamomile plant response rating: 30
Field poppy; Postemergence, 16 g ai/ha
  Plant response rating, Field Poppy: 60
Field poppy; Postemergence, 31 g ai/ha
  Field Poppy plant response rating: 65
Field poppy; Postemergence, 125 g ai/ha
  Field Poppy plant response rating: 85
Field poppy; Postemergence, 250 g ai/ha
  Field Poppy plant response rating: 90
Field poppy; postemergence, 62 g ai/ha
  Field Poppy plant response rating: 70
bromegrass, downy [3]; Postemergence, 16 g ai/ha
  Plant response rating, Bromegrass, Downy: 0
bromegrass, downy [3]; Postemergence, 31 g ai/ha
  Bromegrass, Downy plant response rating: 0
bromegrass, downy [3]; Postemergence, 125 g ai/ha
  Bromegrass, Downy plant response rating: 10
bromegrass, downy [3]; Postemergence, 250 g ai/ha
  Bromegrass, Downy plant response rating: 15
bromegrass, downy [3]; postemergence, 62 g ai/ha
  Bromegrass, Downy plant response rating: 5
bluegrass; Postemergence, 16 g ai/ha
  Plant response rating, Bluegrass: 5
bluegrass; Postemergence, 31 g ai/ha
  Bluegrass plant response rating: 5
bluegrass; Postemergence, 125 g ai/ha
  Bluegrass plant response rating: 20
bluegrass; Postemergence, 250 g ai/ha
  Bluegrass plant response rating: 20
bluegrass; postemergence, 62 g ai/ha
  Bluegrass plant response rating: 10
Chamomile [4]; [9]
  Plant response rating (scale 0 to 100), Chamomile: 50
Chamomile [4]; 31 g ai/ha
  Plant response rating, Chamomile: 80
Chamomile [4]; 62 g ai/ha
  Plant response rating, Chamomile: 95
Chamomile [4]; 125 g ai/ha
  Plant response rating, Chamomile: 100
Chamomile [4]; 250 g ai/ha
  Plant response rating, Chamomile: 100
oat, wild [5]; Postemergence, 16 g ai/ha
  Plant response rating, Oat, Wild: 5
oat, wild [5]; Postemergence, 31 g ai/ha
  Oat, Wild plant response rating: 5
oat, wild [5]; Postemergence, 125 g ai/ha
  Oat, Wild plant response rating: 10
oat, wild [5]; Postemergence, 250 g ai/ha
  Oat, Wild plant response rating: 15
oat, wild [5]; postemergence, 62 g ai/ha
  Oat, Wild plant response rating: 10
canarygrass; Postemergence, 16 g ai/ha
  Plant response rating, Canarygrass: 5
canarygrass; Postemergence, 31 g ai/ha
  Canarygrass plant response rating: 5
canarygrass; Postemergence, 125 g ai/ha
  Canarygrass plant response rating: 10
canarygrass; Postemergence, 250 g ai/ha
  Canarygrass plant response rating: 15
canarygrass; postemergence, 62 g ai/ha
  Canarygrass plant response rating: 10
bromegrass, downy [6]; [9]
  Plant response rating (scale 0 to 100), Bromegrass, Downy: 0
bromegrass, downy [6]; 31 g ai/ha
  Plant response rating, Bromegrass, Downy: 0
bromegrass, downy [6]; 62 g ai/ha
  Plant response rating, Bromegrass, Downy: 0
bromegrass, downy [6]; 125 g ai/ha
  Plant response rating, Bromegrass, Downy: 5
bromegrass, downy [6]; 250 g ai/ha
  Plant response rating, Bromegrass, Downy: 65
blackgrass; [9]
  Plant response rating (scale 0 to 100), Blackgrass: 20
blackgrass; 31 g ai/ha
  Plant response rating, Blackgrass: 50
blackgrass; 62 g ai/ha
  Plant response rating, Blackgrass: 100
blackgrass; 125 g ai/ha
  Plant response rating, Blackgrass: 100
blackgrass; 250 g ai/ha
  Plant response rating, Blackgrass: 100
mustard, wild; Postemergence, 16 g ai/ha
  Plant response rating, Mustard, Wild: 10
mustard, wild; Postemergence, 31 g ai/ha
  Mustard, Wild plant response rating: 40
mustard, wild; Postemergence, 125 g ai/ha
  Mustard, Wild plant response rating: 100
mustard, wild; Postemergence, 250 g ai/ha
  Mustard, Wild plant response rating: 100
mustard, wild; postemergence, 62 g ai/ha
  Mustard, Wild plant response rating: 70
windgrass; Postemergence, 16 g ai/ha
  Plant response rating, Windgrass: 5
windgrass; Postemergence, 31 g ai/ha
  Windgrass plant response rating: 5
windgrass; Postemergence, 125 g ai/ha
  Windgrass plant response rating: 10
windgrass; Postemergence, 250 g ai/ha
  Windgrass plant response rating: 15
windgrass; postemergence, 62 g ai/ha
  Windgrass plant response rating: 10
Lambsquarters [7]; Postemergence, 16 g ai/ha
  Plant response rating, Lambsquarters: 65
Lambsquarters [7]; Postemergence, 31 g ai/ha
  Lambsquarters plant response rating: 70
Lambsquarters [7]; Postemergence, 125 g ai/ha
  Lambsquarters plant response rating: 95
Lambsquarters [7]; Postemergence, 250 g ai/ha
  Lambsquarters plant response rating: 100
Lambsquarters [7]; postemergence, 62 g ai/ha
  Lambsquarters plant response rating: 75
galium; [9]
  Plant response rating (scale 0 to 100), Galium: 25
galium; 31 g ai/ha
  Plant response rating, Galium: 50
galium; 62 g ai/ha
  Plant response rating, Galium: 100
galium; 125 g ai/ha
  Plant response rating, Galium: 100
galium; 250 g ai/ha
  Plant response rating, Galium: 100
Lambsquarters [8]; [9]
  Plant response rating (scale 0 to 100), Lambsquarters: 30
Lambsquarters [8]; 31 g ai/ha
  Plant response rating, Lambsquarters: 70
Lambsquarters [8]; 62 g ai/ha
  Plant response rating, Lambsquarters: 95
Lambsquarters [8]; 125 g ai/ha
  Plant response rating, Lambsquarters: 100
Lambsquarters [8]; 250 g ai/ha
  Plant response rating, Lambsquarters: 100

From patent US20150105252A1, “SUBSTITUTED PYRAZOLES AS HERBICIDES” (E I DU PONT DE NEMOURS AND COMPANY, priority 2013, published 2015)
